Series [1] is described as follows: Pharmacokinetics assay in mice. The format is in vivo. As to conditions: female, mouse, po, C57 mice, intragastric, 2 mg/kg, plasma. As for the experimental part: Mice were used as test animals. The drug concentration in plasma at different time points was determined by LC/MS/MS method after administration of the compounds 1-P2, 2-P2, 4-P2, 6-P2, 9-P2, 10-P2 and 11-P2. The pharmacokinetic behavior of the compounds of the present disclosure was studied and evaluated in mice.
Sixty-three C57 mice (female, equally divided into seven groups) were purchased from Shanghai Jiesijie Laboratory Animal Co., LTD. (Certificate No.: SCXK(Shanghai)2013-0006).
A certain amount of the test compound was weighed, dissolved in 5% of DMSO by volume and 5% of tween 80, followed by the additon of 90% of normal saline to prepare a 0.1 mg/mL colorless, clear and transparent solution.
After an overnight fast, C57 mice were intragastrically administered the test compound at an administration dose of 2 mg/kg and an administration volume of 0.2 ml/10 g.
The mice were intragastrically administered the test compounds. 0.1 ml of blood was taken before the administration and at 0.25, 0.5, 1.0, 2.0, 4.0, 6.0, 8.0, 11.0 and 24.0 hours after the administration. The samples were stored in heparinized tubes, and centrifuged for 10 minutes at 3500 rpm to separate the blood plasma. The plasma samples were stored at −20° C.
The content of the test compound in the plasma of mice after intragastrical administration of the test compound at different concentrations was determined: 25 μL of […] plasma at each time point after the administration was taken, followed by the addition of 50 μL of the internal standard camptothecin solution (100ng/mL) and 200 μL of acetonitrile. The resulting solution was vortex-mixed for 5 minutes, and centrifuged for 10 minutes (4000 rpm). 4 μL of the supernatant was taken from the plasma samples for LC/MS/MS analysis.

The target in series [2] is T1, ERK2 (Homo sapiens, UniProt P28482).
T1 construct: purchased R&D 1879-KS-010
The experiment in a line: ERK2 enzyme activity test (ADP-Glo Kinase Assay). The format is biochemical. As to conditions: ADP-Glo chemiluminescence. As for the experimental part: The purpose of this experiment is to detect the inhibitory ability of the compounds of the present disclosure on the ERK2 enzyme activity, and to evaluate the in vitro activity of the compounds based on the IC50. The ADP-Glo™ Kinase Assay Kit was used in this experiment. The substrate was phosphorylated under the action of the enzyme and ADP was produced at the same time. The ADP-Glo reagent was added to remove the unreacted ATP in the reaction system, and the ADP produced by the reaction was detected with kinase detection reagent. In the presence of the compound, the inhibition rate of the compound was calculated by measuring the signal value.
Preparation of enzyme and substrate: ERK2 (1879-KS-010, R&D) and substrate (custom peptide, Gill Biochemical) were prepared to 0.75 ng/ml and 1500 μM in a buffer (40 mM Tris, 20 mM MgCl2, 0.1 mg/ml BSA, 50 μM DTT), and then the enzyme solution and the substrate solution were prepared into a mixed solution at a volume ratio of 2:1 for later use. ATP was diluted to 500 μM with buffer. The compound was dissolved in DMSO (dimethyl sulfoxide, Shanghai Titan Scientific Co., Ltd.) to prepare a stock solution with an initial concentration of 20 mM, and then Bravo was used to prepare the compound. Finally, 3 μL of a mixed solution of enzyme and substrate, and 1 μL substrate of different concentrations of the compound (the initial concentration is 50 μM, 4-fold dilution) were added to each well of the 384-well plate, and the plate was incubated at 30° C. for 10 minutes, and finally 1 μL 500 μM ATP solution was added to each well, and the plate was incubated at 30° C. for 2 hours. Then 5 μL of ADP-Glo was added, and the plate was incubated at 30° C. for 40 minutes. Then 10 μL of kinase detection buffer was added, and the plate was incubated at 30° C. for 40 minutes. The 384-well plate was taken out and placed in a microplate reader (BMG labtech, PHERAstar FS), and the chemiluminescence was measured by a microplate reader.
(§1) Microsoft Excel, Graphpad Prism 5 was used to process and analyze the data.
On the technique in general: ADP-Glo turns the ADP formed in a reaction into a luminescent signal.

Series [3] concerns Colo205 cells. The experiment in a line: In vitro proliferation inhibition test on Colo205 tumor cells (CellTiter-Glo). The format is cell-based. As to conditions: Homo sapiens, COLO 205, 72 h; Colo205 cell proliferation, 3 days of culture, CTG. As for the experimental part: The purpose of this experiment is to test the inhibitory activity of the compounds of the present disclosure on the proliferation of Colo205 cells (CCL-222, ATCC) in vitro. The cells were treated in vitro with different concentrations of the compounds. After 3 days of culture, the cell proliferation was tested with CTG (CellTiter-Glo® Luminescent Cell Viability Assay, Promega, Catalog No. G7573) reagent, and the in vitro activity of the compounds was evaluated according to the ICso value.
In the following, the in vitro proliferation inhibition test method of Colo205 cells is taken as an example to illustrate the method for testing the in vitro proliferation inhibitory activity of the compounds of the present disclosure on tumor cells. This method is also applicable to, but not limited to, the in vitro proliferation inhibitory activity test on other tumor cells.
Colo205 cells were digested, centrifuged and then resuspended. The single cell suspension was mixed well, and the density of viable cells was adjusted to 5.0×10^4 cells/ml with cell culture medium (RPMI1640+2% FBS), and 95 μL/well was added to a 96-well cell culture plate. Only 100 μL medium was added to the peripheral wells of the 96-well plate. The culture plate was incubated in an incubator for 24 hours (37° C., 5% CO2).
The compound was dissolved in DMSO (dimethyl sulfoxide, Shanghai Titan Scientific Co., Ltd.) and prepared as a stock solution with an initial concentration of 20 mM. The initial concentration of the small molecule compound was 2 mM, and then 4-fold diluted into 9 points, and the 10th point was DMSO. Another 96-well plate was taken, and 90 μL of cell culture medium (RPMI1640+2% FBS) was added to each well. Then 10 μL of different concentrations of the test sample was added to each well. The mixture was mixed well, and then 5μL of different concentrations of the test sample was added to the cell culture plate. Each sample has two duplicate holes. The culture plate was incubated in the incubator for 3 days (37° C., 5% CO2). The 96-well cell culture plate was taken out. 50 μL solution of CTG was added to each well, and the plate was incubated for 10 minutes at room temperature. In a microplate reader (BMG labtech, PHERAstar FS), chemiluminescence was measured with the microplate reader.
as §1

T1 sequence (P28482 2-360 limits assumed): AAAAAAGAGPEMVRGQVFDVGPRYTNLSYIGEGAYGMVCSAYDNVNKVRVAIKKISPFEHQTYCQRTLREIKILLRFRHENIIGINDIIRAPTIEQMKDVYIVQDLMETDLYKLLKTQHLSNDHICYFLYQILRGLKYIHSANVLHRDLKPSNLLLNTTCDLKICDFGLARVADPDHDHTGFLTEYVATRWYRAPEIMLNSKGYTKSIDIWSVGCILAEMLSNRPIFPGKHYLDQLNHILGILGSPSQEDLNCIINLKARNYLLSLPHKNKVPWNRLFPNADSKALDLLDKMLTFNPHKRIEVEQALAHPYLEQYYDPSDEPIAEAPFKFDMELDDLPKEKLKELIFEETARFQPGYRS

What is called AUC is the area under the concentration-time curve, a measure of exposure. A word on the MRT: it is the average time that molecules of a dose stay in the body. As usually defined, the IC50 is the point on the concentration scale where inhibition reaches its midpoint. The low end stands for greater potency, the high end for weaker potency. `COc1cc(F)cc([C@@H](CO)NC(=O)[C@@H](C)N2Cc3cc(-c4nc(NC5CCOCC5)ncc4Cl)cn3C2=O)c1` [Example 6-P2, (R)-2-(6-(5-Chloro-2-((tetrahydro-2H-pyran-4-yl)amino)pyrimidin-4-yl)-3-oxo-1H-pyrrolo[1,2-c]imidazol-2(3H)-yl)-N-((S)-1-(3-fluoro-5-methoxyphenyl)-2-hydroxyethyl)propanamide]: the Vd/F in series [1] (read-out: Apparent distribution volume Vz/F) stood at 7.74 L/kg. Besides, the AUC in series [1] (read-out: Area under curve AUC) was 1740 ng·h/mL. In addition, in series [1] (read-out: Clearance CLz/F), the CL/F was 18.9 mL/min/kg. Moreover, the half-life in series [1] (read-out: Half-life T1/2 (converted)) was 4.74 h. Besides, the Cmax in series [1] (read-out: Plasma concentration Cmax) came to 1310 ng/mL. Moreover, in series [1] (read-out: Residence time MRT), the MRT was 1.39 h. Besides, the IC50 in series [2] was 7.5 nM.
With `C[C@H](C(=O)N[C@H](CO)c1cccc(Cl)c1)N1CCn2cc(-c3nc(NC4CCOCC4)ncc3Cl)cc2C1=O` [Example 13-P2, (R)-2-(7-(5-Chloro-2-((tetrahydro-2H-pyran-4-yl)amino)pyrimidin-4-yl)-1-oxo-3,4-dihydropyrrolo[1,2-a]pyrazin-2(1H)-yl)-N—((S)-1-(3-chlorophenyl)-2-hydroxyethyl)propanamide], the IC50 in series [3] came to 31 nM; in series [2], 2.8 nM.
As to `COc1cc(F)cc([C@@H](CO)NC(=O)[C@H](C)N2CCn3cc(-c4nc(N[C@@H](C)CO)ncc4Cl)nc3C2=O)c1` [Example 14-P1, (S)-2-(2-(5-Chloro-2-(((S)-1-hydroxypropan-2-yl)amino)pyrimidin-4-yl)-8-oxo-5,6-dihydroimidazo[1,2-a]pyrazin-7(8H)-yl)-N-((S)-1-(3-fluoro-5-methoxyphenyl)-2-hydroxyethyl)propanamide], in series [2], the IC50 is 1530 nM. This counts as single-digit micromolar.
For `COc1cc(F)cc([C@@H](CO)NC(=O)[C@@H](C)N2CCn3cc(-c4nc(N[C@@H](C)CO)ncc4Cl)nc3C2=O)c1` [Example 14-P2, (R)-2-(2-(5-Chloro-2-(((S)-1-hydroxypropan-2-yl)amino)pyrimidin-4-yl)-8-oxo-5,6-dihydroimidazo[1,2-a]pyrazin-7(8H)-yl)-N-((S)-1-(3-fluoro-5-methoxyphenyl)-2-hydroxyethyl)propanamide], in series [2], half-maximal inhibition (IC50) was put at 4.9 nM.
`COc1cc(F)cc([C@@H](CO)NC(=O)[C@@H](C)N2CCn3cc(-c4nc(N[C@@H](C)CO)ncc4Cl)cc3C2=O)c1` [Example 15, (R)-2-(7-(5-Chloro-2-(((S)-1-hydroxypropan-2-yl)amino)pyrimidin-4-yl)-1-oxo-3,4-dihydropyrrolo[1,2-a]pyrazin-2(1H)-yl)-N-((S)-1-(3-fluoro-5-methoxyphenyl)-2-hydroxyethyl)propanamide] displayed an IC50 in series [2] of 28.7 nM.
On to `C[C@H](C(=O)N[C@H](CO)c1cccc(Cl)c1)N1CCc2cc(-c3nc(NC4CCOCC4)ncc3Cl)cn2C1=O` [Example 16-P2, (R)-2-(6-(5-Chloro-2-((tetrahydro-2H-pyran-4-yl)amino)pyrimidin-4-yl)-1-oxo-3,4-dihydropyrrolo[1,2-c]pyrimidin-2(1H)-yl)-N-((S)-1-(3-chlorophenyl)-2-hydroxyethyl)propanamide], for which the IC50 stood at 54 nM in series [3] and 4.2 nM in series [2].
On to `Cc1cccc([C@@H](CO)NC(=O)[C@@H](C)N2CCn3cc(-c4ccnc(Nc5ccnn5C)n4)cc3C2=O)c1` [Example 18-P2, (R)-N-((S)-2-Hydroxy-1-(m-tolyl)ethyl)-2-(7-(2-((1-methyl-1H-pyrazol-5-yl)amino)pyrimidin-4-yl)-1-oxo-3,4-dihydropyrrolo[1,2-a]pyrazin-2(1H)-yl)propanamide], for which, in series [2], the IC50 came out at 5.5 nM.
On to `Cc1cccc([C@@H](CO)NC(=O)[C@@H](C)N2CCn3cc(-c4ccnc(NC5CCOCC5)n4)cc3C2=O)c1` [Example 19-P2, (R)-N-((S)-2-Hydroxy-1-(m-tolyl)ethyl)-2-(1-oxo-7-(2-((tetrahydro-2H-pyran-4-yl)amino)pyrimidin-4-yl)-3,4-dihydropyrrolo[1,2-a]pyrazin-2(1H)-yl)propanamide], for which the values for the IC50 in series [3] and in series [2] were 67 nM and 6.7 nM, respectively.

Values taken from US20220204512A1, “SUBSTITUTED FUSED BICYCLIC DERIVATIVE, PREPARATION METHOD THEREFOR, AND APPLICATION THEREOF IN MEDICINES” (Jiangsu Hengrui Medicine Co., Ltd., priority 2019, published 2022).
